Reference: patent publication US20030050274A1, “Composition containing S-adenosylmethionine for treating or preventing insulin resistance syndrome” (priority 2001, published 2003)

Key:
Type in all cases: in vivo, rat
[1] = test system: OLETF (Otsuka Long Evans Tokushima Fatty) rats; test: Glucose load test
Protocol: (§1) 14 six-week-old OLETF (Otsuka Long Evans Tokushima Fatty) rats (Otsuka Research Lab., Tokushima, bred for use as a non-insulin-dependent diabetes mellitus model) were evenly divided into two injection groups. The rats of two groups were administered into the abdominal cavity either with S-adenosylmethionine (SAMe(+) group) or with a vehicle containing L-lysine (SAMe(−) group) at a daily dose of 15 mg/kg body weight for a duration of up to 19 weeks. 7 six-week-old LETO (Long Evans Tokushima Otsuka) rats (Otsuka Research Lab., Tokushima, normal rats) were used as a normal control group (Control group). The rats of each group were examined for their weight changes, and checked by way of conducting glucose load tests and euglycemic hyperinsulinemic clamp tests to measure the effect of S-adenosylmethionine on the insulin secretion and insulin sensitivity.
(§2) Test data were analyzed to represent each test result in the form of mean±standard error mean. Differences in weight changes among the groups were analyzed by ANOVA with Least Significance Difference using SPSS/PC 10.0, and the differences in glucose load and clamp test results, by the Kruskall-Wallis test and checked using the Mann-Whitney probation method. The significance level was set at a p value of 0.05 or below.
On the 19th week after the administration had begun, the rats were starved for 6 hours and a 35% glucose solution (0.5 g glucose/kg body weight) was bolus-infused into each rat through the tail artery. At 0, 2, 6, 8, 10, 15, 20 and 30 minites after the infusion, a 200 μl blood sample was taken from the tail artery of each rat, centrifuged and the plasma supernatant was separated. The blood glucose level was determined by employing YSI 2300.
In addition, the glucose loss rate ( % /min) was calculated from the inclination of log-converted values of glucose concentrations measured during 2 to 15 minutes after the infusion. The glucose loss rates of the SAM(+) and SAM(−) groups were similar at 3.69±0.29 and 3.23±0.32%/min, respectively, while that of the Control group was much higher at 5.13±0.29%/min.

[2] = test system: OLETF (Otsuka Long Evans Tokushima Fatty) rats; test: Weight change of OLETF rats administered S-adenosylmethionine; parameters: Body Weight: dose or concentration left out as unconfirmed
Protocol: as §1, §2
(1-1) Weight Change At 0, 1, 2, 4, 8, 13, 16 and 19 weeks after the administration had begun, the weight changes of the rats of the three groups were recorded.

[3] = test system: SD-based rats; test: Toxicity of orally administered S-adenosylmethionine
Protocol: 8 six-week-old, specific pathogen-free SD-based rats were evenly divided into four groups, which were orally administered with S-adenosylmethionine suspended in a 0.5% methylcellulose solution at a dose of 50, 100, 200 and 500 mg SAMe/kg body weight, respectively. […] Every 12 hours thereafter, the weight changes of the rats were recorded to examine the effect of S-adenosylmethionine. Further, on the 10th day, the rats were sacrificed and the internal organs were visually examined.

[4] = test system: OLETF (Otsuka Long Evans Tokushima Fatty) rats; test: Euglycemic hyperinsulinemic clamp test
Protocol: as §1, with “The rats of each group were examined for their weight changes, and checked by way of conducting glucose load tests and euglycemic hyperinsulinemic clamp tests to measure the effect of S-adenosylmethionine on the insulin secretion and insulin sensitivity.” left out
as §2, with “The significance level was set at a p value of 0.05 or below.” left out
Based on the fact that the amount of glucose infused to maintain the steady basal level is equal to the amount of glucose consumed in the body, insulin resistance of each group was determined from the mean glucose infusion rate (mg/kg/min) during the clamp test period. […]

[5] = measurement time period 0-30 min after the infusion

C[S+](CC[C@H](N)C(=O)[O-])C[C@H]1O[C@@H](n2cnc3c(N)ncnc32)[C@H](O)[C@@H]1O (stereo partly drawn) [S-adenosylmethionine]
blood glucose levels measured at 6 and 8 minutes after the infusion as compared with the SAM(−) group ([1]; OLETF rats, 19th week of 15 mg/kg/day): significantly lower
Blood Glucose Level ([1]; OLETF rats, 19th week of 15 mg/kg/day, 0 min after 0.5 g/kg glucose infusion): 118 mg/dL
Blood Glucose Level ([1]; OLETF rats, 19th week of 15 mg/kg/day, 2 min after 0.5 g/kg glucose infusion): 368 mg/dL
Blood Glucose Level ([1]; OLETF rats, 19th week of 15 mg/kg/day, 6 min after 0.5 g/kg glucose infusion): 291 mg/dL
Blood Glucose Level ([1]; OLETF rats, 19th week of 15 mg/kg/day, 8 min after 0.5 g/kg glucose infusion): 265 mg/dL
Blood Glucose Level ([1]; OLETF rats, 19th week of 15 mg/kg/day, 10 min after 0.5 g/kg glucose infusion): 257 mg/dL
Blood Glucose Level ([1]; OLETF rats, 19th week of 15 mg/kg/day, 15 min after 0.5 g/kg glucose infusion): 224 mg/dL
Blood Glucose Level ([1]; OLETF rats, 19th week of 15 mg/kg/day, 20 min after 0.5 g/kg glucose infusion): 204 mg/dL
Blood Glucose Level ([1]; OLETF rats, 19th week of 15 mg/kg/day, 30 min after 0.5 g/kg glucose infusion): 172 mg/dL
glucose loss rate ([1]; from inclination of log-converted glucose concentrations, 2 to 15 minutes after the infusion): 3.69±0.29 %/min
area obtained by integrating the blood glucose level curve [1, 5]: 234±9.6 (mg/dl).min
area under blood glucose level curve, difference among SAM(+), SAM(−) and Control groups [1, 5]: no significant differences
ratio of weight gain as compared with the SAM(−) group ([2]; OLETF rats, 15 mg/kg/day into abdominal cavity, up to 19 weeks): significantly lower
Body Weight ([2]; week 0): 220 g
Body Weight ([2]; week 1): 299 g
Body Weight ([2]; week 2): 343 g
Body Weight ([2]; week 4): 403 g
Body Weight ([2]; week 8): 464 g
Body Weight ([2]; week 13): 498 g
Body Weight ([2]; week 16): 528 g
Body Weight ([2]; week 19): 565 g
toxicity ([3]; rat, oral, dose of 500 mg/kg, observed 10 days): no toxicity
autopsy: pathological abnormality of internal organs ([3]; rats, oral 50-500 mg/kg, 10th day): did not develop any pathological abnormality
weight loss ([3]; rats, oral 50-500 mg/kg, 10 day test period): no weight loss
survival at day 10 ([3]; rats, oral single dose 50, 100, 200 and 500 mg/kg): All the rats were alive
mean glucose infusion rate ([4]; 19th week of 15 mg/kg/day, insulin 12 mU/kg/min, clamp period 60 to 120 min): 16.7 ± 1.70 mg/kg/min
insulin resistance ([4]; conclusion from clamp test): effectively lowers the insulin resistance
